This note sets out measurements from patent US20110251281A1, “Composite Material Comprising High-Molecular-Weight Matrix and Low-Molecular-Weight Organic Compound and Process For Producing Same” (NATIONAL INSTITUTE FOR MATERIALS SCIENCE, priority 2008, published 2011).

Data set [1] in a line: Composite formation of AlGltn/TSC matrix containing amino acid derivative after immersion in water. The format is physicochemical. The following applies: 100 mM amino acid derivative, 20 mM TSC, water at 4° C. for one day. Here is the method:
High-molecular-weight matrices formed from alkali-treated gelatin (AlGltn; derived from pig bone) and TSC (citric acid derivative), in which an amino acid derivative was contained, were prepared. By immersing in water, DMSO was replaced by water and the amino acid was precipitated. The behavior of the high-molecular-weight matrices after the precipitation was observed by each type and concentration of the amino acid.
400 μl of a DMSO solution containing 15 w/v % AlGltn and 10% lactic acid was added with an amino acid derivative to give 100 mM in a 2 ml tube. The mixture was agitated and degassed. 100 μl of a 10% lactic acid-containing DMSO was added with TSC at 20 mM (4.84 mg) and agitated. The solution made by addition of the amino acid derivative to the AlGltn/10% lactic acid-containing DMSO solution, agitation, and degasification, was added with the TSC/10% lactic acid-containing DMSO solution. The mixture was agitated for 30 seconds and then degassed for 30 seconds. After leaving still for one day, the resulting high-molecular-weight matrix was taken out and immersed in water at 4° C. for one day. The gel was taken out and its behavior was observed.

A short description of data set [2]: Am80 release from alkali-treated collagen composite materials in PBS, HPLC. The format is physicochemical. To be noted: PBS pH7.4, 37° C., in one day. As for the experimental part:
The high-molecular-weight matrices containing the low-molecular-weight organic compound prepared in 2-1 mentioned above were dried in a desiccator and then heated in an oven at 80° C. for 10 min. These composite materials were used as samples for HPLC.
The thus produced high-molecular-weight matrices were each transferred in a 250 mL polyethylene container, and 200 mL of PBS (pH7.4) was added thereto. These were heated in an incubator at 37° C. The supernatant thereof was sampled in a time course manner, and 50 μL each was assayed by HPLC.
In the HPLC method, the Nacalai Tesque COSMOSIL Packed Column (Size: 4.6 I.D.×150 mm; Type: 5C18-AR II ATERS) was used as the column, and a 5% HOAc/CH3CN=35/65 (v/v) aqueous solution was used as the eluent. The flow rate was 1.00 mL/min, and the column temperature was 40.0° C. The detection was conducted by UV-visible spectroscopy.
The elusion amount was calculated based on a calibration curve that had been formed in advance. Three kinds of drug/PBS (pH7.4) solutions were prepared within a concentration range from 1.14 μM to 569 μM, and assayed by HPLC. The condition for this assay was the same as the above. […]
In the HPLC method, the Am80 elusion amount was calculated under the same conditions as for the above-mentioned method.

For the compound `CC[C@H](C)[C@H](NC(=O)OCC1c2ccccc2-c2ccccc21)C(=O)O` [FmocIleOH], the Composite formation result in data set [1] is reported as “Present”.
For `O=C(N[C@@H](Cc1c[nH]c2ccccc12)C(=O)O)OCC1c2ccccc2-c2ccccc21` [FmocTrpOH], in data set [1], the Composite formation entry is “Present”.
Turning to `CC(=O)NC(Cc1c[nH]c2ccccc12)C(N)=O` (stereo not shown) [AcTrpNH2], in data set [1], the Composite formation result was “Absent”.
As to `CC(=O)N[C@@H](Cc1ccc(O)cc1)C(N)=O` [AcTyrNH2], the Composite formation result in data set [1] is recorded as “Absent”.
On to `O=C(N[C@@H](Cc1ccccc1)C(=O)O)OCC1c2ccccc2-c2ccccc21` [FmocPheOH], for which the Composite formation entry in data set [1] was “Present”.
On the same count and under the same terms, as for `CC(C)(C)OC[C@H](NC(=O)OCC1c2ccccc2-c2ccccc21)C(=O)O` [FmocSer(tBu)OH], the entry is “Present”.
On to `CC1(C)CCC(C)(C)c2cc(NC(=O)c3ccc(C(=O)O)cc3)ccc21` [Am80, Tamibarotene], for which the Am80 released in data set [2] is 49%.
